This note sets out measurements from patent US5094945A, “Inhibition resistant 5-enolpyruvyl-3-phosphoshikimate synthase, production and use” (priority 1988, dated 1992).

The Kd is the constant that tells how readily two partners part at equilibrium. The term inhibition denotes how much of the control response was suppressed. By Ki is commonly meant the equilibrium dissociation constant of an inhibitor or competing ligand from its target. As a reminder, the Km is the concentration of substrate that gives half-maximal velocity.

Data set [1] addresses T1, EPSP synthase from the glyphosate-resistant strain of S. typhimurium (Salmonella typhimurium, UniProt P07637, P101S).
T1 construct: EPSP synthase activities from the glyphosate-resistant strain of S. typhimurium; endogenous in cells; host or cells: glyphosate-resistant strain of S. typhimurium
As to the kind of experiment: EPSP synthase activity with inhibitor, bacterial mutant enzyme. The format is biochemical. The following applies: pH 7, read-out: EPSP Synthase Activity, % control. How it is done:
(§1) In the next study, the effect of glyphosate and antiserum to bacterial EPSP synthase on EPSP synthase activities from the glyphosate-resistant strain of S. typhimurium, from the wild-type turnip gall and from ocs-aroA turnip gall was studied. Enzyme activity was assayed fluorometrically in the forward direction as described by Boocock and Coggins, supra.

Data set [2] has as its target T2, 5-enolpyruvyl-3-phosphoshikimate synthase from wild type strain STK1 (Salmonella typhimurium, UniProt P07637).
T2 construct: endogenous in cells; host or cells: S. typhimurium strain STK1, French press homogenate, protamine sulfate precipitate
As to the kind of experiment: ES-3-P synthase assay (release of inorganic phosphate), enzyme preparation of wild type strain STK1. The format is biochemical, S. typhimurium. How it is done: (§2) S. typhimurium strains CT7 and STK1 were grown with aeration for 24 hours at 37° C. in M9 broth. Cells were harvested by centrifugation at 4° C., washed twice with M9 salts, resuspended in 0.01 M Tris-HC1 (pH8.2) and sheared with a French press at 20,000 psi. The homogenate was centrifuged at 16,000 g for 40 min and the supernatant treated with 2% protamine sulfate (1.0 ml of 2% protamine sulfate for every 35 mg of protein). The precipitate was removed by centrifugation at 18,000 xg for 35 min, resuspended and used for enzyme assays. Activity of the enzyme was determined by measuring the rate of release of inorganic phosphate (Heinonen and Lahti, Anal. Biochem. (1981) 113:313-317).
(§3) A typical assay mixture contained 150 μmole maleic acid buffer (pH5.6), 2.88 μmole phosphoenolpyruvate, 4.08 μmole 3-phosphoshikimate and the enzyme fraction in a total volume of 1.5 ml. The reaction was started by addition of the enzyme after pre-incubation of the assay mixture at 37° C. for 5 min. Aliquots were taken at timed intervals and mixed immediately with the reagents for phosphate analysis. The low pH of the reagent (1.25 N H2 SO4) terminated enzyme activity.
(§4) Resistance to glyphosate mediated by a mutation(s) at the aroA locus could result from altered regulation leading to overproduction of 5-enolpyruvyl-3phosphoshikimate synthase or to a structural alteration of the enzyme. To distinguish between these two hypotheses in vitro enzyme preparations were assayed from Salmonella strains STK1 and CT7 which are the wild type and mutant strain respectively. 5-Enolpyruvyl-3-phosphoshikimate synthase activities from wild type and glyphosate-resistant mutants differed by Km for 3-phosphoshikimate, Kd for glyphosate, and at high concentration of 3-phosphoshikimate, by specific activity.

Data set [3] relates to EPSP synthase from wild type turnip gall. The experiment in a line: EPSP synthase activity with inhibitor, wild type turnip gall extract. The format is biochemical. As to conditions: pH 7.0, PEP 500 μM, shik 3P 500 μM. The protocol: as §1
Data set [4] relates to aroA E. coli strains with pPMG11. As to the kind of experiment: Glyphosate resistance of aroA E. coli carrying pPMG11. The format is cell-based. The following applies: 5.5 Kb BglII/HindIII Salmonella DNA segment (pPMG11). The protocol:
(§5) Glyphosate was added to M9 after autoclaving. For selection experiments, a commercial solution of glyphosate was used. Resistant mutants were isolated by plating bacterial suspensions in M9 broth or on M9 solid medium supplemented with varying amounts of glyphosate. The level of resistance achieved by the mutants was scored by three types of tests: a spot test, consisting of toothpicking a small colony from a non-selective to a selective medium; a streak test, consisting of streaking cells on a selective plate to obtain single colonies; and growth curves, to determine the kinetics of growth in liquid medium supplemented with glyphosate.
To subclone the aroA-Pmg^r gene, plasmid pPMG1 was digested with the restriction endonuclease BglII. […] Plasmid pPMG1 was digested to completion with BglII, ligated in vitro and the DNA transformed into strain LC2 selecting for aroA complementation. Clones were screened and plasmids containing the 10 Kb BglII fragment in both orientations relative to the vector pVK100 were identified. Plasmids pPMG5 and pPMG6 complemented aroA E. coli strains and conferred high levels of glyphosate resistance. Further subcloning was accomplished by digesting plasmid pPMG5 with BglII and HindIII and ligating in vitro. Strain LC2 was transformed and colonies which were aroA+ and kanamycin sensitive were selected. […] This plasmid was designated pPMG11.

Data set [5] has as its system EPSP synthase from ocs-aroA transformed turnip gall. As to the kind of experiment: EPSP synthase activity with inhibitor, ocs-aroA transformed turnip gall extract. Type of data set: biochemical. The following applies: pH 7.0, PEP 500 μM, shik 3P 500 μM. How it is done:
as §1

A further data set relates to wild type E. coli. As to the kind of experiment: Growth kinetics with glyphosate, wild type E. coli. Type of data set: cell-based. The protocol: as §5
(§6) The growth kinetics of both S. typhimurium and E. coli strains with wild type and mutant aroA locus were investigated.

For data set [6], the system named is S. typhimurium strain TA831. The experiment in a line: Colony formation on solid M9 medium with glyphosate. The format is cell-based. As to conditions: Salmonella enterica, read-out: glyphosate concentration at which no colonies form. The protocol: as §5
The target in data set [7] is T3, EPSP synthase purified from wild type S. typhimurium (Salmonella typhimurium, UniProt P07637).
T3 construct: ES-3-P synthase purified from wild-type S. typhimurium; endogenous in cells; host or cells: wild-type S. typhimurium (purified)
T3 sequence (P07637 whole entry): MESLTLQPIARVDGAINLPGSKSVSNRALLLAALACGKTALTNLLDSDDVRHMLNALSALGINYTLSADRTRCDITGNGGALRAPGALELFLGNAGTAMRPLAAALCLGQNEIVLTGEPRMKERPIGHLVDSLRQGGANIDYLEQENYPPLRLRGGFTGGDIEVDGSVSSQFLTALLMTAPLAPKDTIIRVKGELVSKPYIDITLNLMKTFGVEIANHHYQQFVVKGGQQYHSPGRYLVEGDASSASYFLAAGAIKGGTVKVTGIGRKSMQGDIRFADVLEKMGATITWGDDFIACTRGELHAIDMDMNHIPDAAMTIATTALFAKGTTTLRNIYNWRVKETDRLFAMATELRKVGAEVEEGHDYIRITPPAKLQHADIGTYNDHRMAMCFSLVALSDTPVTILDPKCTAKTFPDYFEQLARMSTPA
As to the kind of experiment: Fluorimetric EPSP synthase assay, forward direction, purified wild type enzyme. Type of data set: biochemical. As to conditions: pH 7.0, 500 μM shik 3-P, read-out: Ki for glyphosate. The protocol:
(§7) In the next study, a comparison of the kinetic parameters at pH 7.0 of ES-3-P synthase purified from wild-type S. typhimurium and from the mutant glyphosate-resistant strain was made. Enzyme activity was assayed fluorometrically in the forward direction as described by Boocock and Coggins, FEBS Letters (1983) 154:127-133.

In data set [8] the target is T4, EPSP synthase purified from the mutant glyphosate-resistant strain (Salmonella typhimurium, UniProt P07637, P101S).
T4 construct: ES-3-P synthase purified from wild-type S. typhimurium and from the mutant glyphosate-resistant strain; endogenous in cells; host or cells: mutant glyphosate-resistant S. typhimurium strain (purified)
T4 sequence (P07637 whole entry P101S): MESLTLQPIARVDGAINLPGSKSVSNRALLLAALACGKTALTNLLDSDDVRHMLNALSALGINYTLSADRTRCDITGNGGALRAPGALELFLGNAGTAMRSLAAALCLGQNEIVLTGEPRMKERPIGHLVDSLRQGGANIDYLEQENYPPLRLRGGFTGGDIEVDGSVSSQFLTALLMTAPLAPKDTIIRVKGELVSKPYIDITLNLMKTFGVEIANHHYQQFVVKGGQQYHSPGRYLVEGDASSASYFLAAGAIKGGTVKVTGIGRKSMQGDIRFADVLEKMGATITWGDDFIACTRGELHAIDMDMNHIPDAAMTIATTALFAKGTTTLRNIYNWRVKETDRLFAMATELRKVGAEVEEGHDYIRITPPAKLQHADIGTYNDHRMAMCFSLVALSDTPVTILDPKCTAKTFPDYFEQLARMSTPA
As to the kind of experiment: Fluorimetric EPSP synthase assay, forward direction, purified mutant enzyme. The format is biochemical, S. typhimurium. The protocol: as §7

The subject of data set [9] is S. typhimurium strain CTF3. The experiment in a line: Spot test for glyphosate resistance. The format is cell-based. The protocol:
as §5

For another data set, the system named is S. typhimurium CT7. As to the kind of experiment: Growth in minimal medium supplemented with glyphosate, mutant. As to conditions: Salmonella enterica, read-out: growth inhibition. Type of data set: cell-based. The protocol: as §5
(§8) The above assays were performed on enzyme preparations obtained from cells grown in minimal medium. To determine whether the enzyme of the glyphosate resistance mutant was differentially regulated during glyphosate induced stress, STK1, the wild type, and CT7 the mutant, were grown in minimal medium supplemented, respectively, with 70 μg/ml and 1000 μg/ml of glyphosate. These conditions give approximately 20-30% growth inhibition. The specific activity of preparations from cells grown in the presence of glyphosate was 10% higher than that found in preparations from cells grown without glyphosate.

In the next data set the test system is S. typhimurium STK1. The experiment in a line: Growth in minimal medium supplemented with glyphosate, wild type. Type of data set: cell-based. As to conditions: Salmonella enterica, minimal medium with 70 μg/ml glyphosate. How it is done:
as §5, §8

Data set [10] has as its system S. typhimurium Pmg^r mutants (fifteen mutants, incl. CT7). As to the kind of experiment: Streak test on M9 medium with glyphosate. The format is cell-based. The following applies: streaked on M9 medium. How it is done:
as §5

Data set [11] has as its target T5, 5-enolpyruvyl-3-phosphoshikimate synthase from glyphosate-resistant mutant CT7 (Salmonella typhimurium, UniProt P07637, P101S).
T5 construct: endogenous in cells; host or cells: S. typhimurium strain CT7, French press homogenate, protamine sulfate precipitate
The experiment in a line: ES-3-P synthase assay (release of inorganic phosphate), enzyme preparation of glyphosate-resistant mutant CT7. The format is biochemical, S. typhimurium. The protocol:
as §2, §3
(§9) Resistance to glyphosate mediated by a mutation(s) at the aroA locus could result from altered regulation leading to overproduction of 5-enolpyruvyl-3phosphoshikimate synthase or to a structural alteration of the enzyme. […]

The subject of data set [12] is aroA E. coli strain LC3 harboring pPMG1. As to the kind of experiment: Growth kinetics with glyphosate, LC3 harboring pPMG1. Type of data set: cell-based. The following applies: 2 μg/ml of glyphosate. How it is done:
as §5, §6

Data set [13] relates to O=C(O)C1=C[C@@H](OP(=O)(O)O)[C@@H](O)[C@H](O)C1. As to the kind of experiment: Fluorimetric EPSP synthase assay, forward direction, purified mutant enzyme. The format is biochemical, S. typhimurium. As to conditions: other: mutant, pH 7.0, 500 μM PEP. How it is done:
as §7

For data set [14], the system named is C=C(OP(=O)(O)O)C(=O)O. The description is as above. The following applies: other: mutant, pH 7.0, 500 μM shik 3-P. The format is biochemical, S. typhimurium. How it is done:
as §7

The test system of data set [15] is O=C(O)C1=C[C@@H](OP(=O)(O)O)[C@@H](O)[C@H](O)C1. As to the kind of experiment: ES-3-P synthase assay (release of inorganic phosphate), enzyme preparation of wild type strain STK1. Type of data set: biochemical, S. typhimurium. As to conditions: other: STK1 wild type enzyme preparation; phosphoenolpyruvate 2.5 × 10^-1 M; 37.0 °C. The protocol: as §2, §3, §4
The test system is the same in data set [16]. As to the kind of experiment: Fluorimetric EPSP synthase assay, forward direction, purified wild type enzyme. As to conditions: other: wild type, pH 7.0, 500 μM PEP. The format is biochemical, S. typhimurium. The protocol: as §7
Data set [17] deals with C=C(OP(=O)(O)O)C(=O)O. The description is as above. The format is biochemical, S. typhimurium. As to conditions: other: wild type, pH 7.0, 500 μM shik 3-P. How it is done:
as §7

The subject of data set [18] is O=C(O)C1=C[C@@H](OP(=O)(O)O)[C@@H](O)[C@H](O)C1. As to the kind of experiment: ES-3-P synthase assay (release of inorganic phosphate), enzyme preparation of glyphosate-resistant mutant CT7. Type of data set: biochemical, S. typhimurium. The following applies: other: CT7 mutant enzyme preparation; phosphoenolpyruvate 2.5 × 10^-1 M; 37.0 °C. How it is done: as §2, §3, §9

T2 sequence (P07637 whole entry): as the sequence (P07637 whole entry) above
T1 sequence (P07637 whole entry P101S): as the sequence (P07637 whole entry P101S) above
T5 sequence (P07637 whole entry P101S): as above

Regarding `O=C(O)CNCP(=O)(O)O` [glyphosate, N-phosphonomethyl glycine], the remaining activity at 100 µM in data set [1] stood at 35%. Moreover, in data set [1], the remaining activity at 500 µM came to 9%. Besides, the activation at 70 µg/mL in data set [2] (STK1 grown with 70 μg/ml glyphosate, read-out: increase of ES-3-P synthase specific activity, cells grown with vs without glyphosate) is 10%. Also, the Kd in data set [2] (STK1 wild type enzyme preparation, read-out: Kd glyphosate) was found to be 22 µM; in data set [11], 190 µM. Besides, the “EPSP Synthase Activity, % control” value is 8 % control in data set [3] (glyphosate 100 μM), 2 % control in [3] (glyphosate 500 μM), 29 % control in data set [5] (glyphosate 100 μM) and 9 % control in data set [5] (glyphosate 500 μM). Further, the “level of glyphosate resistance conferred” value in data set [4] is given as “approx. 2 mg/ml”. Further, the inhibition at 100 µg/mL with wild type E. coli (Escherichia coli, 100 μg/ml glyphosate, read-out: inhibition of growth rate) amounted to 40%. Further, in the data set with wild type E. coli (one mg/ml glyphosate), the growth result is on record as “no growth was observed”. Besides, the MIC in data set [6] was more than 200 µg/mL. In addition, the Ki in data set [7] turned out to be 1.5 µM; in [8], 5 µM. Also, in data set [9], the “glyphosate concentration to which the strain was resistant” value is 350 µg/mL. The inhibition at 1000 µg/mL in the data set on S. typhimurium CT7 is 20 to 30%. For the same compound, the inhibition at 70 µg/mL with S. typhimurium STK1 was in the range of 20 to 30%. In [10], the “glyphosate concentration on which colonies formed in 48 hours” value is 2 mg/mL. Also, the growth inhibition result in data set [12] is “not significantly inhibited”.

Take “EPSP synthase purified from the mutant glyphosate-resistant strain (Salmonella enterica subsp. enterica serovar Typhimurium str. LT2; P101S)”: the Km in data set [13] stood at 1.6 µM; with C=C(OP(=O)(O)O)C(=O)O [14], 22 µM.

Take “5-enolpyruvyl-3-phosphoshikimate synthase from wild type strain STK1 (Salmonella enterica subsp. enterica serovar Typhimurium str. LT2)”: in [15], the Km turned out to be 340 µM.

For “EPSP synthase purified from wild type S. typhimurium (Salmonella enterica subsp. enterica serovar Typhimurium str. LT2)”, the Michaelis constant (Km) in data set [16] amounted to 2.6 µM; with C=C(OP(=O)(O)O)C(=O)O [17] it was 30 µM.

Consider “5-enolpyruvyl-3-phosphoshikimate synthase from glyphosate-resistant mutant CT7 (Salmonella enterica subsp. enterica serovar Typhimurium str. LT2; P101S)”, for which the Km in data set [18] amounted to 2800 µM.
